Experimental findings from ChEMBL document CHEMBL1128489, “Novel hexakis(areneisonitrile)technetium(I) complexes as radioligands targeted to the multidrug resistance P-glycoprotein” (J Med Chem, 1995) are described below.

Conditions in all cases: in vivo, 0.5 h
In data set [1] the test system is Rattus norvegicus. As to the kind of experiment: Biodistribution values represent the mean % id/organ for paired rats 30 min post intravenous injection complex in Blood. The class given is ADME, organism-based.
In data set [2] the test system is Rattus norvegicus. As to the kind of experiment: Biodistribution values represent the mean % id/organ for paired rats 30 min post intravenous injection complex in Muscles. The class given is ADME, organism-based, Muscle tissue.
Data set [3] concerns Rattus norvegicus. As to the kind of experiment: Biodistribution values represent the mean % id/organ for paired rats 30 min post intravenous injection complex in Liver. The class given is ADME, organism-based.
Data set [4] deals with Rattus norvegicus. As to the kind of experiment: Biodistribution values represent the mean % id/organ for paired rats 30 min post intravenous injection complex in Bone. Format: ADME, organism-based, Bone element.
Data set [5] concerns Rattus norvegicus. As to the kind of experiment: Biodistribution values represent the mean % id/organ for paired rats 30 min post intravenous injection complex in GI. Format: ADME, organism-based.
For data set [6], the system named is Rattus norvegicus. As to the kind of experiment: Biodistribution values represent the mean % id/organ for paired rats 30 min post intravenous injection complex in Heart. Format: ADME, organism-based.
In data set [7] the test system is Rattus norvegicus. As to the kind of experiment: Biodistribution values represent the mean % id/organ for paired rats 30 min post intravenous injection complex in Spleen. The class given is ADME, organism-based.
Data set [8] deals with Rattus norvegicus. As to the kind of experiment: Biodistribution values represent the mean % id/organ for paired rats 30 min post intravenous injection complex in Kidney. Format: ADME, organism-based.
In data set [9] the test system is Rattus norvegicus. As to the kind of experiment: Biodistribution values represent the mean % id/organ for paired rats 30 min post intravenous injection complex in Skin. The class given is ADME, organism-based.
For data set [10], the system named is Rattus norvegicus. As to the kind of experiment: Biodistribution values represent the mean % id/organ for paired rats 30 min post intravenous injection complex in Adrenal. Format: ADME, organism-based.
Data set [11] concerns Rattus norvegicus. As to the kind of experiment: Biodistribution values represent the mean % id/organ for paired rats 30 min post intravenous injection complex in Lungs. Format: ADME, organism-based, Lung.
Data set [12] concerns Rattus norvegicus. As to the kind of experiment: Biodistribution values represent the mean % id/organ for paired rats 30 min post intravenous injection complex in Fat. Format: ADME, organism-based.
In data set [13] the test system is Rattus norvegicus. As to the kind of experiment: Biodistribution values represent the mean % id/organ for paired rats 30 min post intravenous injection complex in Brain. Format: ADME, organism-based.

Consider “Hexakis-(2-methoxyisobutylisonitrile)Technetium (99mTc-MIBI)”, for which the ID/organ in the data set on Rattus norvegicus [1] is on record as 0.33%; with Rattus norvegicus [2] it was 18.5%; in the data set on Rattus norvegicus [3], 10.8%; in the data set on Rattus norvegicus [4] it was 11%; in the data set with Rattus norvegicus [5] it was 30.3%; with Rattus norvegicus [6] it was 2.36%. For the same substance, the ID/organ in the data set with Rattus norvegicus [7] turned out to be 0.6%; in the data set with Rattus norvegicus [8] it was 6.26%; in the data set on Rattus norvegicus [9] it was 3.95%; in the data set on Rattus norvegicus [10] it was 0.16%; in the data set with Rattus norvegicus [11] it was 0.71%; in the data set on Rattus norvegicus [12], 0.73%. This substance returned an ID/organ in the data set on Rattus norvegicus [13] of 0.05%.

Turning to “Hexakis[2-(3,4,5-Trimethoxyphenyl)ethaneisonitrile]technetium Complex”, the ID/organ in the data set on Rattus norvegicus [1] is listed as 0.93%; in the data set with Rattus norvegicus [2], 4.84%; in the data set with Rattus norvegicus [3] it was 44.2%; with Rattus norvegicus [4], 5.11%; with Rattus norvegicus [5] it was 24.5%; in the data set on Rattus norvegicus [6], 0.38%. Moreover, the ID/organ amounted to 1.5% in the data set on Rattus norvegicus [7]; 10% in the data set on Rattus norvegicus [8]; 1.33% in the data set on Rattus norvegicus [9]; 0.12% in the data set with Rattus norvegicus [10]; 0.43% with Rattus norvegicus [11]; 0.19% with Rattus norvegicus [12]. Besides, the ID/organ in the data set on Rattus norvegicus [13] was determined as 0.01%.

As for “Hexakis[2-(3,4-Dimethoxyphenyl)ethaneisonitrile]technetium Complex”, the ID/organ in the data set with Rattus norvegicus [1] stood at 3%; in the data set with Rattus norvegicus [2] it was 1.77%; in the data set with Rattus norvegicus [3] it was 77.5%; in the data set with Rattus norvegicus [4], 2.96%; in the data set with Rattus norvegicus [5], 15.7%; in the data set on Rattus norvegicus [6], 0.07%. In addition, the ID/organ in the data set with Rattus norvegicus [7] is listed as 1.91%; in the data set on Rattus norvegicus [8], 1.26%; with Rattus norvegicus [9], 0.82%; in the data set on Rattus norvegicus [10] it was 0.04%; in the data set with Rattus norvegicus [11] it was 1.1%; with Rattus norvegicus [12], 0.14%. Also, in the data set with Rattus norvegicus [13], the ID/organ is 0.02%.

For “Hexakis[2-(4-Methoxyphenyl)ethaneisonitrile]technetium Complex”, the ID/organ is listed as 0.79% in the data set with Rattus norvegicus [1]; 1.99% with Rattus norvegicus [2]; 81.1% in the data set with Rattus norvegicus [3]; 3.44% with Rattus norvegicus [4]; 1.86% in the data set on Rattus norvegicus [5]; 0.15% in the data set on Rattus norvegicus [6]. For the same substance, the ID/organ in the data set on Rattus norvegicus [7] was 2.94%; in the data set on Rattus norvegicus [8], 0.19%; with Rattus norvegicus [9] it was 0.41%; with Rattus norvegicus [10], 0.03%; in the data set with Rattus norvegicus [11], 3.93%; in the data set with Rattus norvegicus [12] it was 0.26%. In the data set with Rattus norvegicus [13], the ID/organ worked out at 0%.

Consider “Hexakis[2-Methoxy-5-nitrobenzeneisonitrile]technetium Complex”, for which the ID/organ in the data set on Rattus norvegicus [1] was determined as 14.1%; with Rattus norvegicus [2], 6.82%; in the data set with Rattus norvegicus [3] it was 32.5%; with Rattus norvegicus [4] it was 9.58%; with Rattus norvegicus [5], 19.4%; in the data set on Rattus norvegicus [6], 0.35%. Besides, the ID/organ in the data set on Rattus norvegicus [7] came to 1.25%; in the data set on Rattus norvegicus [8], 2.74%; in the data set on Rattus norvegicus [9], 2.88%; in the data set on Rattus norvegicus [10] it was 0.04%; with Rattus norvegicus [11], 0.51%; with Rattus norvegicus [12], 0.55%. The substance further yielded an ID/organ in the data set on Rattus norvegicus [13] of 0.04%.

Take “Hexakis[3,4,5-Trimethoxy-alpha-tolueneisonitrile]technetium Complex”: the ID/organ with Rattus norvegicus [1] turned out to be 0.59%; in the data set on Rattus norvegicus [2], 3.02%; in the data set on Rattus norvegicus [3] it was 39.2%; with Rattus norvegicus [4], 2.29%; in the data set on Rattus norvegicus [5], 65.1%; with Rattus norvegicus [6] it was 0.17%. In addition, the ID/organ in the data set on Rattus norvegicus [7] worked out at 0.13%; in the data set on Rattus norvegicus [8] it was 3.83%; with Rattus norvegicus [9] it was 0.76%; with Rattus norvegicus [10], 0.04%; in the data set on Rattus norvegicus [11] it was 0.61%; with Rattus norvegicus [12], 0.17%. This substance also displayed an ID/organ in the data set on Rattus norvegicus [13] of 0.01%.

With “Hexakis[3,4-(Methylenedioxy)-alpha-tolueneisonitrile]technetium Complex”, the ID/organ in the data set on Rattus norvegicus [1] is 4.19%; in the data set with Rattus norvegicus [2], 3.9%; in the data set on Rattus norvegicus [3], 73.8%; in the data set with Rattus norvegicus [4], 4.29%; with Rattus norvegicus [5], 5.75%; in the data set on Rattus norvegicus [6] it was 0.15%. Moreover, the ID/organ in the data set with Rattus norvegicus [7] amounted to 2.78%; in the data set on Rattus norvegicus [8], 0.61%; with Rattus norvegicus [9], 0.6%; in the data set with Rattus norvegicus [10], 0.07%; with Rattus norvegicus [11], 3.04%; in the data set on Rattus norvegicus [12], 0.26%. Further, in the data set on Rattus norvegicus [13], the ID/organ is 0.01%.

On to “Hexakis[3,4-(Methylenedioxy)benzeneisonitrile]technetium Complex”, for which the ID/organ amounted to 1.45% in the data set on Rattus norvegicus [1]; 0.47% in the data set with Rattus norvegicus [2]; 91.8% with Rattus norvegicus [3]; 4.73% in the data set with Rattus norvegicus [4]; 0.38% in the data set on Rattus norvegicus [5]; 0.03% in the data set with Rattus norvegicus [6]. For the same substance, the ID/organ is listed as 1.82% in the data set with Rattus norvegicus [7]; 0.12% in the data set with Rattus norvegicus [8]; 0.19% with Rattus norvegicus [9]; 0.05% in the data set on Rattus norvegicus [10]; 2.62% in the data set with Rattus norvegicus [11]; 0.08% with Rattus norvegicus [12]. Further, in the data set on Rattus norvegicus [13], the ID/organ is 0.01%.

For “Hexakis[3,4-Dimethoxy-alpha-tolueneisonitrile]technetium Complex”, the ID/organ with Rattus norvegicus [1] turned out to be 3.27%; in the data set with Rattus norvegicus [2], 2.48%; in the data set on Rattus norvegicus [3] it was 44.2%; in the data set on Rattus norvegicus [4], 4.72%; with Rattus norvegicus [5], 33.5%; with Rattus norvegicus [6], 0.1%. Also, the ID/organ in the data set with Rattus norvegicus [7] is 0.34%; with Rattus norvegicus [8], 2.25%; with Rattus norvegicus [9], 1.35%; with Rattus norvegicus [10], 0.07%; with Rattus norvegicus [11], 1.22%; in the data set on Rattus norvegicus [12], 0.21%. Further, the ID/organ in the data set with Rattus norvegicus [13] was 0.02%.

As for “Hexakis[3,4-Dimethoxybenzeneisonitrile]technetium Complex”, the ID/organ in the data set on Rattus norvegicus [1] is recorded as 3.92%; in the data set with Rattus norvegicus [2], 4.67%; in the data set with Rattus norvegicus [3] it was 87.7%; with Rattus norvegicus [4], 4.38%; with Rattus norvegicus [5], 2.44%; with Rattus norvegicus [6], 0.13%. Besides, the ID/organ worked out at 4.5% in the data set on Rattus norvegicus [7]; 0.61% in the data set with Rattus norvegicus [8]; 1.07% with Rattus norvegicus [9]; 0.07% in the data set with Rattus norvegicus [10]; 1.89% in the data set on Rattus norvegicus [11]; 0.4% with Rattus norvegicus [12]. This substance also registered an ID/organ with Rattus norvegicus [13] of 0.02%.

Take “Hexakis[3,5-Dimethoxy-alpha-tolueneisonitrile]technetium Complex”: the ID/organ amounted to 5.06% in the data set with Rattus norvegicus [1]; 1.82% in the data set with Rattus norvegicus [2]; 75.9% with Rattus norvegicus [3]; 3.63% with Rattus norvegicus [4]; 2.22% in the data set with Rattus norvegicus [5]; 0.12% in the data set with Rattus norvegicus [6]. For the same substance, the ID/organ with Rattus norvegicus [7] was 3.35%; in the data set with Rattus norvegicus [8], 0.3%; with Rattus norvegicus [9], 0.43%; in the data set with Rattus norvegicus [10], 0.04%; in the data set on Rattus norvegicus [11], 0.87%; with Rattus norvegicus [12], 0.2%. The same substance yielded an ID/organ in the data set with Rattus norvegicus [13] of 0.02%.
